Reference: US20240090503A1, “FUNGICIDAL OXADIAZOLES AND THEIR MIXTURES” (FMC CORPORATION, priority 2020, published 2024)
Like-named read-outs stand apart in the source and are kept apart here.

Assays:
[1] = tested on: Puccinia recondita f. sp. tritici (the causal agent of wheat leaf rust); assay: Test C: preventive spray on wheat seedlings, wheat leaf rust, visual disease rating; assay type: in vivo; settings: for pest or weed control at 10 µg/mL: read-out: Test C disease control rating
Description: (§1) General protocol for preparing test suspensions for Tests A-D: the test compounds were first dissolved in acetone in an amount equal to 3% of the final volume and then suspended at the desired concentration (in ppm) in acetone and purified water (50/50 mix by volume) containing 250 ppm of the surfactant PEG400 (polyhydric alcohol esters). The resulting test suspensions were then used in Tests A-D.
The test suspension was sprayed to the point of run-off on wheat seedlings. The following day the seedlings were inoculated with a spore suspension of Puccinia recondita f. sp. tritici; (the causal agent of wheat leaf rust) and incubated in a saturated atmosphere at 20° C. for 24 h, and then moved to a growth chamber at 20° C. for 6 days, after which time visual disease ratings were made.
(§2) The test results for Tests A-C presented in Table A below for compounds of Formula 1 illustrate the fungicidal activity of component (a) contributing to the plant disease control utility of compositions comprising component (a) in combination with component (b) according to the present invention. In the Table, a rating of 100 indicates 100% disease control and a rating of 0 indicates no disease control (relative to the controls). A dash (-) indicates the compound was not tested. The test suspensions were sprayed at the concentration listed in the column “Rate in ppm”, unless otherwise indicated. An asterisk “*” next to the rating indicates a 250 ppm test suspension was used, a double asterisk “**” next to the rating indicates a 100 ppm test suspension was used, and a triple asterisk “***” next to the rating indicates a 50 ppm test suspension was used.

[2] = tested on: Phakopsora pachyrhizi (the causal agent of Asian soybean rust); assay: Test A: preventive spray on soybean seedlings, Asian soybean rust, visual disease rating; assay type: in vivo; settings: for pest or weed control at 10 µg/mL: read-out: Test A disease control rating
Description: as §1
The test suspension was sprayed to the point of run-off on soybean seedlings. The following day the seedlings were inoculated with a spore suspension of Phakopsora pachyrhizi (the causal agent of Asian soybean rust) and incubated in a saturated atmosphere at 22° C. for 24 h and then moved to a growth chamber at 22° C. for 8 days, after which time visual disease ratings were made.
as §2

[3] = Puccinia recondita, 168 h, test suspension 10 ppm, wheat seedlings
[4] = Phakopsora pachyrhizi, 216 h, test suspension 10 ppm, soybean seedlings, 100 = 100% disease control, 0 = no control
[5] = test suspension 10 ppm, wheat seedlings
[6] = test suspension 10 ppm, soybean seedlings, 100 = 100% disease control, 0 = no control
[7] = test suspension 50 ppm, wheat seedlings
[8] = test suspension 50 ppm, soybean seedlings

Structure (SMILES) | Test C disease control rating [1, 5] [%] | Test A disease control rating [2, 6] [%] | other results
O=c1ccc(Cl)nn1Cc1ccc(-c2noc(C(F)(F)F)n2)cc1 [Compound 4, 6-chloro-2-[[4-[5-(trifluoromethyl)-1,2,4-oxadiazol-3-yl]phenyl]methyl]-3(2H)-pyridazinone] |  |  | pest or weed control at 50 µg/mL ([1]; Puccinia recondita, 168 h, test suspension 50 ppm, wheat seedlings): 100%; pest or weed control at 50 µg/mL ([2]; Phakopsora pachyrhizi, 216 h, test suspension 50 ppm, soybean seedlings): 100%
COC(=O)c1ccn(Cc2ccc(-c3noc(C(F)(F)F)n3)cc2)c(=O)c1 [Compound 24, methyl 1,2-dihydro-2-oxo-1-[[4-[5-(trifluoromethyl)-1,2,4-oxadiazol-3-yl]phenyl]methyl]-4-pyridinecarboxylate] |  |  | pest or weed control at 10 µg/mL [1, 3]: 95%; pest or weed control at 10 µg/mL [2, 4]: 100%
COC(=O)c1cccc2nn(Cc3ccc(-c4noc(C(F)(F)F)n4)cc3)cc12 [Compound 36, methyl 2-[[4-[5-(trifluoromethyl)-1,2,4-oxadiazol-3-yl]phenyl]methyl]-2H-indazole-4-carboxylate] |  |  | pest or weed control at 10 µg/mL [1, 3]: 100%; pest or weed control at 10 µg/mL [2, 4]: 100%
COC(=O)c1cccc2c1cnn2Cc1ccc(-c2noc(C(F)(F)F)n2)cc1 [Compound 49, methyl 1-[[4-[5-(trifluoromethyl)-1,2,4-oxadiazol-3-yl]phenyl]methyl]-1H-indazole-4-carboxylate] |  |  | pest or weed control at 10 µg/mL [1, 3]: 100%; pest or weed control at 10 µg/mL [2, 4]: 100%
COC(=O)C1COC(Cc2ccc(-c3noc(C(F)(F)F)n3)cc2)=N1 (centres unmarked) [Compound 74, methyl 4,5-dihydro-2-[[4-[5-(trifluoromethyl)-1,2,4-oxadiazol-3-yl]phenyl]methyl]-4-oxazolecarboxylate] |  |  | pest or weed control at 10 µg/mL [1, 3]: 51%; pest or weed control at 10 µg/mL [2, 4]: 99%
NC(=O)C1COC(Cc2ccc(-c3noc(C(F)(F)F)n3)cc2)=N1 (centres unmarked) [Compound 75, 4,5-dihydro-2-[[4-[5-(trifluoromethyl)-1,2,4-oxadiazol-3-yl]phenyl]methyl]-4-oxazolecarboxamide] |  |  | pest or weed control at 10 µg/mL [1, 3]: 68%; pest or weed control at 10 µg/mL [2, 4]: 100%
CCOC(=O)c1cc(C)n(Cc2ccc(-c3noc(C(F)(F)F)n3)cc2)n1 [Compound 110, ethyl 5-methyl-1-[[4-[5-(trifluoromethyl)-1,2,4-oxadiazol-3-yl]phenyl]methyl]-1H-pyrazole-3-carboxylate] |  |  | pest or weed control at 10 µg/mL [1, 3]: 91%; pest or weed control at 10 µg/mL [2, 4]: 100%
FC(F)(F)c1nc(-c2ccc(Cn3ccc4ncccc43)cc2)no1 [Compound 136, 1-[[4-[5-(trifluoromethyl)-1,2,4-oxadiazol-3-yl]phenyl]methyl]-1H-pyrrolo[3,2-b]pyridine] |  |  | pest or weed control at 10 µg/mL [1, 3]: 68%; pest or weed control at 10 µg/mL [2, 4]: 100%
FC(F)(F)c1nc(-c2ccc(Cn3ncc4cccnc43)cc2)no1 [Compound 147, 1-[[4-[5-(trifluoromethyl)-1,2,4-oxadiazol-3-yl]phenyl]methyl]-1H-pyrazolo[3,4-b]pyridine] |  |  | pest or weed control at 10 µg/mL [1, 3]: 100%; pest or weed control at 10 µg/mL [2, 4]: 100%
CN(C)C(=O)C1COC(Cc2ccc(-c3noc(C(F)(F)F)n3)cc2)=N1 (centres unmarked) [Compound 178, 4,5-dihydro-N,N-dimethyl-2-[[4-[5-(trifluoromethyl)-1,2,4-oxadiazol-3-yl]phenyl]methyl]-4-oxazolecarboxamide] |  |  | pest or weed control at 10 µg/mL [1, 3]: 68%; pest or weed control at 10 µg/mL [2, 4]: 96%
COCCNC(=O)c1cc(C)n(Cc2ccc(-c3noc(C(F)(F)F)n3)cc2)n1 [Compound 183, N-(2-methoxyethyl)-5-methyl-1-[[4-[5-(trifluoromethyl)-1,2,4-oxadiazol-3-yl]phenyl]methyl]-1H-pyrazole-3-carboxamide] |  |  | pest or weed control at 10 µg/mL [1, 3]: 100%; pest or weed control at 10 µg/mL [2, 4]: 100%
O=C(NCCCl)c1coc(Cc2ccc(-c3noc(C(F)(F)F)n3)cc2)n1 [Compound 204, N-(2-chloroethyl)-2-[[4-[5-(trifluoromethyl)-1,2,4-oxadiazol-3-yl]phenyl]methyl]-4-oxazolecarboxamide] |  |  | pest or weed control at 10 µg/mL ([1]; Puccinia recondita, 168 h): 100%; pest or weed control at 10 µg/mL ([2]; Phakopsora pachyrhizi, 216 h): 100%
COC(=O)c1ccc2nn(Cc3ccc(-c4noc(C(F)(F)F)n4)cc3)nc2c1 [compound 23] | 100 | 100 | 
COc1cc(=O)n(Cc2ccc(-c3noc(C(F)(F)F)n3)cc2)nc1Cl [compound 27] |  |  | Test C disease control rating [1, 7]: 100%; Test A disease control rating [2, 8]: 100%
COc1cnn(Cc2ccc(-c3noc(C(F)(F)F)n3)cc2)c(=O)c1 [compound 28] |  |  | Test C disease control rating [1, 7]: 100%; Test A disease control rating [2, 8]: 100%
O=[N+]([O-])c1ccc2c(c1)c(Br)nn2Cc1ccc(-c2noc(C(F)(F)F)n2)cc1 [compound 30] | 0 | 25 | 
CSc1nn(Cc2ccc(-c3noc(C(F)(F)F)n3)cc2)nc1C [compound 31] | 100 | 100 | 

Structure (SMILES) | Test C disease control rating [1, 5] [%] | Test A disease control rating [2, 6] [%] | other results
Cc1cc2c(cnn2Cc2ccc(-c3noc(C(F)(F)F)n3)cc2)cc1Br [compound 32] | 68 | 96 | 
Cc1cc2nn(Cc3ccc(-c4noc(C(F)(F)F)n4)cc3)cc2cc1Br [compound 33] | 68 | 100 | 
Cc1nn(Cc2ccc(-c3noc(C(F)(F)F)n3)cc2)c2cccc(Br)c12 [compound 34] | 55 | 71 | 
COC(=O)c1ccc2nn(Cc3ccc(-c4noc(C(F)(F)F)n4)cc3)cc2c1 [compound 35] | 98 | 100 | 
Cc1c2c(Br)cccc2nn1Cc1ccc(-c2noc(C(F)(F)F)n2)cc1 [compound 37] | 86 | 99 | 
FC(F)(F)c1nc(-c2ccc(Cn3cc4c(I)cc(Cl)cc4n3)cc2)no1 [compound 38] | 68 | 78 | 
FC(F)(F)c1nc(-c2ccc(Cn3ncc4c(I)cc(Cl)cc43)cc2)no1 [compound 39] | 28 | 44 | 
CSc1nnn(Cc2ccc(-c3noc(C(F)(F)F)n3)cc2)c1C [compound 40] | 92 | 100 | 
COC(=O)c1ccc2cnn(Cc3ccc(-c4noc(C(F)(F)F)n4)cc3)c2c1 [compound 41] | 98 | 100 | 
COC(=O)c1ccc2cn(Cc3ccc(-c4noc(C(F)(F)F)n4)cc3)nc2c1 [compound 42] | 92 | 100 | 
CON(C)C(=O)c1nn(Cc2ccc(-c3noc(C(F)(F)F)n3)cc2)c2ccccc12 [compound 43] | 96 | 100 | 
N#CCNC(=O)c1nn(Cc2ccc(-c3noc(C(F)(F)F)n3)cc2)c2ccccc12 [compound 44] | 95 | 100 | 
CNC(=O)c1nn(Cc2ccc(-c3noc(C(F)(F)F)n3)cc2)c2ccccc12 [compound 45] | 99 | 100 | 
COCCNC(=O)c1nn(Cc2ccc(-c3noc(C(F)(F)F)n3)cc2)c2ccccc12 [compound 46] | 100 | 100 | 
COC(=O)c1cccc2cnn(Cc3ccc(-c4noc(C(F)(F)F)n4)cc3)c12 [compound 47] | 74 | 100 | 
COC(=O)c1ccc2c(cnn2Cc2ccc(-c3noc(C(F)(F)F)n3)cc2)c1 [compound 48] | 89 | 100 | 
COC(=O)c1cccc2cn(Cc3ccc(-c4noc(C(F)(F)F)n4)cc3)nc12 [compound 50] | 28 | 13 | 
